The test system of one data set is corneal haze after PRK. To be noted: rabbits, excimer laser PRK; cited from earlier work.
Data set [1] addresses urokinase-type plasminogen activator (Homo sapiens, UniProt P00749). The settings on record: cited from earlier work.
The target in data set [2] is T1, urokinase-type plasminogen activator (uPA) in rabbit tears (Oryctolagus cuniculus, UniProt Q8MHY7).
T1 construct: from tissue; host or cells: rabbit tear fluid collected with glass capillaries
The experiment in a line: Plasminogen activator activity in rabbit tears after PRK, spectrophotometric method with human plasminogen and S-2251. The class given is in vivo, New Zealand rabbits. On the procedure: Both eyes in each of 8 rabbits underwent PRK treatment. One eye of each rabbit was treated with a serine protease inhibitor (SPI) over the first 7 days to inactivate uPA in the tears and on the surface of the cornea. uPA in the tear samples was measured by a spectrophotometric method using human plasminogen and chromogenic peptide substrate S-2251.
Materials and Methods Sixteen eyes of eight normal healthy New Zealand rabbits (3.0–3.5 kg) underwent PRK surgery for spherical correction using the Schwind Keratom II ArF excimer laser (193 nm), performed by the same surgeon at Vital-Laser LLC, Department of Ophthalmology, University Medical School of Debrecen. Animals were handled and treated in adherence to the ARVO Statement for the Use of Animals in Ophthalmic and Vision Research. De-epithelialization was performed with a blunt Keratome Blade knife after epithelial marking with a 6.0–6.5 mm Hoffer trephine. The epithelium was scraped gently from periphery to center. Residual epithelial debris was removed with a sterile microsponge.
Topical anesthetic (0.4% oxybuprocaine hydrochloride) eye drops were administered twice before the surgery. General anesthesia was accomplished by intravenous injection of ketamine-xylazine (2.2:1 ratio, 10 mg/kg). The PRK surgeries were performed on the morning of day 1. The postoperative treatment included antibiotic eye drops, Ciloxan (Alcon), twelve times (hourly) on day 1 and five times (every two hours) on five additional days (postoperative days 2–5 and 7). FLUCON™ (Alcon) and TEARS NATURALE™ (Alcon) were given 5 times daily (every two hours) during the first postoperative month, reduced to 4 times daily (every three hours) for the second month and 3 times daily (every four hours) for the third month. All rabbits received follow-up examinations at 1, 3 and 6 months following the PRK procedure.
In addition, the left eye of each rabbit received 1 drop of 10,000 KIE/ml serine protease inhibitor (SPI), aprotinin (Gordox, Richter Gideon Rt., Budapest), twelve times (hourly) on day 1 and five times (every two hours) on five additional days (postoperative days 2–5 and 7). This was designated the “With-SPI” group. The right eyes were not treated with SPI and were designated the “No-SPI” group. After the seventh day, identical treatment was used on both eyes. No other treatment was used during the six month follow-up period. […] Lottenberg R, Sjak-Shie N, Fazleabas A T, Roberts R M. Aprotinin inhibits urokinase but not tissue-type plasminogen activator. Thromb Res 1988;49:549–556; and Fritz H, Wunderer G. Biochemistry and applications of aprotinin, the kallikrein inhibitor from bovine organs. Arzneim Forsch 1983;33:479–494.
Tear samples for plasminogen activator activity analyses were obtained on the day before the PRK surgery (day 0). Tear samples were collected within minutes after PRK (day 1), before treatment with any eye drops. Daily on postoperative days 2–5, on postoperative day 7 and every fourth day thereafter for three months (91 days), tears were sampled in the morning prior to the administration of any eye drops on the given day so that SPI treatment would not change the uPA levels.
Samples consisted of tears collected with glass capillaries using i.m. injection of pilocarpine hydrochloride (5 mg/kg) for stimulation. Tears were taken from the lower tear meniscus and care was taken not to touch the conjunctiva. The same collection method was used throughout the study. The duration of the sampling time was recorded and the secretion rate was calculated in μl/min, dividing the obtained tear volume by the time of sample collection. Samples used in this investigation had secretion rates of 15–50 μl/min. Samples were centrifuged (1800 rpm) for 8–10 minutes right after sample collection and supernatants were immediately deep-frozen at −80° C. and were thawed only once for measurements. […]

Data set [3] deals with rabbit corneal endothelium. The settings on record: perfused in vitro for three hours, concentrations up to 5,000 IU/ml; cited from earlier work.

Read-outs that look alike come from different tables or passages of the source.

T1 sequence (Q8MHY7 17-433): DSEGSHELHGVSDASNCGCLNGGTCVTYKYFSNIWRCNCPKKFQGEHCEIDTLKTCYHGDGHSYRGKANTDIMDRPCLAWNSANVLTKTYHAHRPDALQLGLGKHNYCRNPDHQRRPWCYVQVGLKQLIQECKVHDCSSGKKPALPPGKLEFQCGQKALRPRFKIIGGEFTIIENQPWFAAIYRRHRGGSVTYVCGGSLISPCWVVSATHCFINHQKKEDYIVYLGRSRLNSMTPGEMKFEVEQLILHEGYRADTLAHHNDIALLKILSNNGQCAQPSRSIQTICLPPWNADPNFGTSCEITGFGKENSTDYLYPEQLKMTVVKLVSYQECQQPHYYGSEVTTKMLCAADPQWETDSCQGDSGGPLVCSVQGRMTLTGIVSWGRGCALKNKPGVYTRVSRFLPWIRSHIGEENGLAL

As to `CO[C@@]12[C@H](COC(N)=O)C3=C(C(=O)C(C)=C(N)C3=O)N1C[C@@H]1N[C@@H]12` [mitomycin C], the “Effect on corneal haze after PRK” value with corneal haze after PRK is reported as “reduce haze after PRK”.

Turning to aprotinin [SPI], the “Inhibition of plasminogen activator (urokinase) activity” value in data set [1] is “effective inhibitor of plasminogen activator activity”; in data set [1] (listed as Aprotinin), “especially effective for inhibiting urokinase”. The “Day by which mean uPA levels returned to preoperative levels” value in data set [2] (SPI-treated rabbit eyes, SPI over first 7 days) came out at 15 days. For the same molecule, in data set [2] (SPI-treated rabbit eyes, period of SPI suppression), the “uPA activity, mean value averaged over days 1–7” value is listed as 0.13 (0.15) IU/ml. Also, the “Mean uPA activity on days 1–7 lower than the equilibrium plasminogen activator activity level” value in data set [2] (SPI-treated rabbit eyes, versus days 19–91 level, p<0.001) came to 95%. The “PAA: With-SPI, mean (SD), equilibrium level” value in data set [2] (averaged over days 19–91, rabbit tears) was 2.88 (0.22) IU/ml. The “PAA: With-SPI, mean (SD)” value was 2.77 (0.26) IU/ml in data set [2] (day 0 (day before PRK, before SPI), rabbit tears, 8 eyes); 0.42 (0.47) IU/ml in data set [2] (day 1 (within minutes after PRK, before eye drops), rabbit tears); 0.18 (0.21) IU/ml in data set [2] (day 2, rabbit tears, sampled in the morning before SPI drops, 10,000 KIE/ml SPI); 0.04 (0.03) IU/ml in data set [2] (day 3, rabbit tears, sampled before SPI drops); 0.03 (0.04) IU/ml in data set [2] (day 4, rabbit tears, sampled before SPI drops); 0.05 (0.05) IU/ml in data set [2] (day 5, rabbit tears, sampled before SPI drops). Further, the “PAA: With-SPI, mean (SD)” value is listed as 0.05 (0.04) IU/ml in data set [2] (day 7, rabbit tears, sampled before SPI drops); 2.63 (0.18) IU/ml in data set [2] (day 11 (after end of SPI treatment), rabbit tears); 2.76 (0.18) IU/ml in data set [2] (day 15, rabbit tears).

With urokinase, in data set [3], the “Endothelial mosaic under scanning electron microscopic scrutiny” value was “retains a normal endothelial mosaic”, the “Swelling of rabbit corneas” value is given as “does not induce meaningful swelling” and the “Toxicity to rabbit corneal endothelium” value is on record as “non-toxic”.

The record behind these values is US7179461B2, “Plasminogen activator to prevent corneal and subepithelial haze after laser vision correction surgery” (The Johns Hopkins University, priority 2000, dated 2007).
